Measurements from article PMC6009956, “Design, synthesis and biological activity of N^4-phenylsubstituted-7H-pyrrolo[2,3-d]pyrimidin-4-amines as dual inhibitors of aurora kinase A and epidermal growth factor receptor kinase” (Journal of Enzyme Inhibition and Medicinal Chemistry, 2017).
Like-named read-outs stand apart in the source and are kept apart here.

What was measured:
aurora A kinase (AURKA) = target: T1, aurora A kinase (AURKA) (Homo sapiens, UniProt O14965); assay: ADP-Glo kinase assay, Aurora A; assay type: biochemical
T1 construct: purchased BPS Bioscience (assay run externally by the vendor)
T1 sequence (O14965 1-403): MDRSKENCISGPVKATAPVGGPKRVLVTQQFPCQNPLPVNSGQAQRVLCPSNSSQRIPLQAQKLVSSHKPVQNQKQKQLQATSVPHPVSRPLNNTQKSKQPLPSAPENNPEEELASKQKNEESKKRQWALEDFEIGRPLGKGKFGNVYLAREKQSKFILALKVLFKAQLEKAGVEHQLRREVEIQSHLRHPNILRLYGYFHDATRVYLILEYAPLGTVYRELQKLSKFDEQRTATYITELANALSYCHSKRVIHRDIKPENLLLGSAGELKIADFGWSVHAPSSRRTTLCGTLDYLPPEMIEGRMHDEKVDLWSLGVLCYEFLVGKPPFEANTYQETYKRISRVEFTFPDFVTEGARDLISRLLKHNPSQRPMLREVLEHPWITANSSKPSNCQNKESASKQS

EGFR = EGFR (Homo sapiens, UniProt P00533); assay: ADP-Glo kinase assay, EGFR; assay type: biochemical; set-up: purchased BPS Bioscience (assay run externally by the vendor)
EGFR, sequence (P00533 25-1210): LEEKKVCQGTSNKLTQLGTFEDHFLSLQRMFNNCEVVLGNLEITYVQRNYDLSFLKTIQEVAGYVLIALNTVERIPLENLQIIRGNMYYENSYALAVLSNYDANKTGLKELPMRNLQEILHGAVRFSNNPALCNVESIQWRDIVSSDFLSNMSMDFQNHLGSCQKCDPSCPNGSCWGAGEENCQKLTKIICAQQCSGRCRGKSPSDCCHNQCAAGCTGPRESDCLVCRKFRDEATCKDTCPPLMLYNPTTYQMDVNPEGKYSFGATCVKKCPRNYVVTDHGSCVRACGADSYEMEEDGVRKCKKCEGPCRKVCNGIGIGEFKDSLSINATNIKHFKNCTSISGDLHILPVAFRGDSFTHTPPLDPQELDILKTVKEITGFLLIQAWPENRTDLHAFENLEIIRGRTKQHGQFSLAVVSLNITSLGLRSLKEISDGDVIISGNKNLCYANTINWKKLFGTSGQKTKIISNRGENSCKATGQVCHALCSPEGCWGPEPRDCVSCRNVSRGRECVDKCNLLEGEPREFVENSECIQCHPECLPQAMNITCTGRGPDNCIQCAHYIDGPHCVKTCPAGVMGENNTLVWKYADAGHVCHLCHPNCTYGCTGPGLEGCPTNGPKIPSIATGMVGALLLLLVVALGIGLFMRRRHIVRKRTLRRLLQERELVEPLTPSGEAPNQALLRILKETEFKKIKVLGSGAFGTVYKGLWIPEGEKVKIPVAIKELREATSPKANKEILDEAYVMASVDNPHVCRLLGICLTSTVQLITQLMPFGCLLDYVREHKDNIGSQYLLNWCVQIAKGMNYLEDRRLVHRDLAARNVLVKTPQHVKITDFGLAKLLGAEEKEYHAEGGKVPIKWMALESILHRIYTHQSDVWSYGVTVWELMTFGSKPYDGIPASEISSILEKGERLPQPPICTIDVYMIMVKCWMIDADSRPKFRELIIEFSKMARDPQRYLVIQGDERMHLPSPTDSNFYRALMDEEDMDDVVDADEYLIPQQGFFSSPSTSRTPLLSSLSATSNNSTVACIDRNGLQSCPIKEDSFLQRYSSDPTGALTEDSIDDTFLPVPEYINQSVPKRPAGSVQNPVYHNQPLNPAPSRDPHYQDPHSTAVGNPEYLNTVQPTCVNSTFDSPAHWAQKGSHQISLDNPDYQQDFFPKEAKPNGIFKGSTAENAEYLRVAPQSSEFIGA

Clc1ccc(Nc2ncnc3[nH]ccc23)cc1Cl [Compound 5, N^4-(3,4-dichlorophenyl)-7H-pyrrolo[2,3-d]pyrimidine-4-amine]
IC50 (aurora A kinase (AURKA); 10 µM ATP, triplicate, read-out: AURKA IC50 ± SD): 3.91 ± 0.11 µM | IC50 (aurora A kinase (AURKA); 10 µM ATP/0.2 mg/ml Kemptide, read-out: Aurora A IC50 (dose-response curve, supplement)): 3.9 µM | Aurora A % Activity Set1 (aurora A kinase (AURKA); Log[nM] 0): 95% | Aurora A % Activity Set2 (aurora A kinase (AURKA); Log[nM] 0): 97% | Aurora A % Activity Set3 (aurora A kinase (AURKA); Log[nM] 0): 103% | Aurora A % Activity Set1 (aurora A kinase (AURKA); Log[nM] 1.0): 104% | Aurora A % Activity Set2 (aurora A kinase (AURKA); Log[nM] 1.0): 95% | Aurora A % Activity Set3 (aurora A kinase (AURKA); Log[nM] 1.0): 97% | Aurora A % Activity Set1 (aurora A kinase (AURKA); Log[nM] 1.5): 98% | Aurora A % Activity Set2 (aurora A kinase (AURKA); Log[nM] 1.5): 101% | Aurora A % Activity Set3 (aurora A kinase (AURKA); Log[nM] 1.5): 102% | Aurora A % Activity Set1 (aurora A kinase (AURKA); Log[nM] 2.0): 104% | Aurora A % Activity Set2 (aurora A kinase (AURKA); Log[nM] 2.0): 107% | Aurora A % Activity Set3 (aurora A kinase (AURKA); Log[nM] 2.0): 105% | Aurora A % Activity Set1 (aurora A kinase (AURKA); Log[nM] 2.5): 103% | Aurora A % Activity Set2 (aurora A kinase (AURKA); Log[nM] 2.5): 108% | Aurora A % Activity Set3 (aurora A kinase (AURKA); Log[nM] 2.5): 106% | Aurora A % Activity Set1 (aurora A kinase (AURKA); Log[nM] 3.0): 91% | Aurora A % Activity Set2 (aurora A kinase (AURKA); Log[nM] 3.0): 104% | Aurora A % Activity Set3 (aurora A kinase (AURKA); Log[nM] 3.0): 91% | Aurora A % Activity Set1 (aurora A kinase (AURKA); Log[nM] 3.5): 55% | Aurora A % Activity Set2 (aurora A kinase (AURKA); Log[nM] 3.5): 51% | Aurora A % Activity Set3 (aurora A kinase (AURKA); Log[nM] 3.5): 58% | Aurora A % Activity Set1 (aurora A kinase (AURKA); Log[nM] 4.0): 16% | Aurora A % Activity Set2 (aurora A kinase (AURKA); Log[nM] 4.0): 21% | Aurora A % Activity Set3 (aurora A kinase (AURKA); Log[nM] 4.0): 19% | Aurora A % Activity Set1 (aurora A kinase (AURKA); Log[nM] 4.5): 11% | Aurora A % Activity Set2 (aurora A kinase (AURKA); Log[nM] 4.5): 12% | Aurora A % Activity Set3 (aurora A kinase (AURKA); Log[nM] 4.5): 11% | Aurora A % Activity Set1 (aurora A kinase (AURKA); Log[nM] 5.0): 11% | Aurora A % Activity Set2 (aurora A kinase (AURKA); Log[nM] 5.0): 12% | Aurora A % Activity Set3 (aurora A kinase (AURKA); Log[nM] 5.0): 13% | EGFR inhibition (in words) (EGFR): single-digit nanomolar EGFR inhibition | IC50 (EGFR; 10 µM ATP, triplicate, read-out: EGFR IC50 ± SD): 0.0067 ± 0.00025 µM | EGFR % Activity Set1 (EGFR; Log[nM] 0): 51% | EGFR % Activity Set2 (EGFR; Log[nM] 0): 59% | EGFR % Activity Set3 (EGFR; Log[nM] 0): 58% | EGFR % Activity Set1 (EGFR; Log[nM] 1.0): 43% | EGFR % Activity Set2 (EGFR; Log[nM] 1.0): 46% | EGFR % Activity Set3 (EGFR; Log[nM] 1.0): 48% | EGFR % Activity Set1 (EGFR; Log[nM] 1.5): 14% | EGFR % Activity Set2 (EGFR; Log[nM] 1.5): 16% | EGFR % Activity Set3 (EGFR; Log[nM] 1.5): 16% | EGFR % Activity Set1 (EGFR; Log[nM] 2.0): 8% | EGFR % Activity Set2 (EGFR; Log[nM] 2.0): 9% | EGFR % Activity Set3 (EGFR; Log[nM] 2.0): 9% | EGFR % Activity Set1 (EGFR; Log[nM] 2.5): 3% | EGFR % Activity Set2 (EGFR; Log[nM] 2.5): 4% | EGFR % Activity Set3 (EGFR; Log[nM] 2.5): 5% | EGFR % Activity Set1 (EGFR; Log[nM] 3.0): 2% | EGFR % Activity Set2 (EGFR; Log[nM] 3.0): 2% | EGFR % Activity Set3 (EGFR; Log[nM] 3.0): 2% | EGFR % Activity Set1 (EGFR; Log[nM] 3.5): 1% | EGFR % Activity Set2 (EGFR; Log[nM] 3.5): 1% | EGFR % Activity Set3 (EGFR; Log[nM] 3.5): 1% | EGFR % Activity Set1 (EGFR; Log[nM] 4.0): 0% | EGFR % Activity Set2 (EGFR; Log[nM] 4.0): 0% | EGFR % Activity Set3 (EGFR; Log[nM] 4.0): 1% | EGFR % Activity Set1 (EGFR; Log[nM] 4.5): 0% | EGFR % Activity Set2 (EGFR; Log[nM] 4.5): 0% | EGFR % Activity Set3 (EGFR; Log[nM] 4.5): 0% | EGFR % Activity Set1 (EGFR; Log[nM] 5.0): 0% | EGFR % Activity Set2 (EGFR; Log[nM] 5.0): 3% | EGFR % Activity Set3 (EGFR; Log[nM] 5.0): 1%
